Data as given in patent US20250009903A1, “PEPTIDE-BINDING HYBRID LIPOSOME EXOSOME, PEPTIDE-BINDING EXOSOME, COMPOSITION CONTAINING SAME, AND METHOD OF FORMING SAME” (SEKISUI CHEMICAL CO., LTD., priority 2021, published 2025).

Test system: HepG2 cells
Assay: Influence of peptide-binding MSC-derived / HEK293 cell-derived exosome solutions on cell growth (Experimental Example 5)
Assay type: cell-based
Experimental: After the sample medium was added, culturing was performed for 48 hours, and using the 8-channel pipette, washing was performed twice with 100 μl of a serum-free DMEM medium (H-Glc). A 10% FBS (exosome-depleted) DMEM (H-Glc) medium was added at 100 μl/well. In addition, after culturing was performed for 48 hours, Premix WST-1 Cell Proliferation Assay System (reagent for cell growth measurement, commercially available from Takara Bio Inc.) was added at 10 μl/well, and color development was performed by performing incubation for 2 hours under […] conditions. The absorbance at 440 nm was measured using “Synergy HTX Multimode Plate Reader” (culture plate absorptiometer, commercially available from Bio Tek Instruments, Inc.). The average absorbance of the control group (no liposome added) was set as 100, the percentage of the absorbance of each well was calculated and used as an index of the degree of cell growth. Here, the Tukey Kramer method was used for the multiple comparison test.
A solution of a peptide having an amino acid sequence shown in SEQ ID NO: 1 was added to a 20 mM borate buffer solution (pH 8.6). In addition, Lipofectamine (registered trademark) (solution for transfection) was dissolved in a serum-free DMEM to prepare a 10% Lipofectamine solution. […]

Sequence: WEAALAEALAEALAEHLAEALAEALEALAA (Amino acid sequence derived from a protein fragment) [peptide]
- % with respect to control group (degree of cell growth) (Table 6A, Adipo-MSC-derived exosome 40 μg/ml, peptide SEQ ID NO: 1, DOX liposome 40 μM, n=6): 147.2%
- % with respect to control group (degree of cell growth) (Table 6B, HEK293 cell-derived exosome 40 μg/ml, peptide SEQ ID No. 1, DOX liposome 40 μM): 141.3%
